Measurements from PubChem BioAssay AID190 (DTP/NCI, 2004).
“And” between values parts separate entries of the source, which are not always exact repeats. Equal entries are not always repeated. Toxic doses and inconclusive results are not listed.

Test system: AKR/Lw mice, AKR lymphoma ip, median survival T/C
Assay: NCI In Vivo Anticancer Drug Screen. Data for tumor model Lymphoma AKR (Transplanted) (intraperitoneal) in AKR/Lw mice
Conditions: endpoint: median survival time, higher = longer survival
Method: The antitumor activity of compounds was measured in mice bearing transplantable tumors. Survival or tumor size were measured and the results are expressed as the measurement made in the treated group (T) divided by the measurement made in the vehicle treated control group (C). The tumor model used in this assay is Lymphoma AKR (Transplanted) (intraperitoneal) in AKR/Lw mice

[1] = dose: 100.0 mg/kg/injection, schedule: Q01DX001 (ip), vehicle: saline
[2] = dose: 400.0 mg/kg/injection, schedule: Q01DX001 (ip), vehicle: saline
[3] = dose: 25.0 mg/kg/injection, schedule: Q01DX001 (ip), vehicle: saline

C1CN1c1nc(N2CC2)nc(N2CC2)n1
T/C (dose: 0.01 mg/kg/injection, schedule: Q04DX003 (ip), vehicle: saline): 102 % of control | T/C (dose: 0.02 mg/kg/injection, schedule: Q01DX009 (ip), vehicle: saline): 115 % of control | T/C (dose: 0.02 mg/kg/injection, schedule: Q04DX003 (ip), vehicle: saline): 111 % of control | T/C (dose: 0.03 mg/kg/injection, schedule: Q01DX009 (ip), vehicle: saline): 109 % of control | T/C (dose: 0.03 mg/kg/injection, schedule: Q04DX003 (ip), vehicle: saline): 86 % of control and 102 % of control | T/C (dose: 0.05 mg/kg/injection, schedule: Q01DX009 (ip), vehicle: saline): 115 % of control | T/C (dose: 0.05 mg/kg/injection, schedule: Q04DX003 (ip), vehicle: saline): 100 % of control | T/C (dose: 0.06 mg/kg/injection, schedule: Q01DX009 (ip), vehicle: saline): 101 % of control and 109 % of control | T/C (dose: 0.06 mg/kg/injection, schedule: Q04DX003 (ip), vehicle: saline): 93 % of control and 97 % of control and 107 % of control | T/C (dose: 0.1 mg/kg/injection, schedule: Q04DX003 (ip), vehicle: saline): 113 % of control | T/C (dose: 0.12 mg/kg/injection, schedule: Q01DX001 (ip), vehicle: saline): 106 % of control | T/C (dose: 0.2 mg/kg/injection, schedule: Q04DX003 (ip), vehicle: saline): 115 % of control and 122 % of control | T/C (dose: 0.25 mg/kg/injection, schedule: Q01DX001 (ip), vehicle: saline): 106 % of control and 111 % of control | T/C (dose: 0.3 mg/kg/injection, schedule: Q04DX003 (ip), vehicle: saline): 121 % of control | T/C (dose: 0.35 mg/kg/injection, schedule: Q04DX003 (ip), vehicle: saline): 120 % of control | T/C (dose: 0.37 mg/kg/injection, schedule: Q01DX001 (ip), vehicle: saline): 105 % of control | T/C (dose: 0.6 mg/kg/injection, schedule: Q01DX009 (ip), vehicle: saline): 116 % of control | T/C (dose: 0.75 mg/kg/injection, schedule: Q01DX001 (ip), vehicle: saline): 105 % of control and 115 % of control | T/C (dose: 0.8 mg/kg/injection, schedule: Q04DX003 (ip), vehicle: saline): 188 % of control | T/C (dose: 1.2 mg/kg/injection, schedule: Q01DX009 (ip), vehicle: saline): 93 % of control | T/C (dose: 1.5 mg/kg/injection, schedule: Q01DX001 (ip), vehicle: saline): 123 % of control | T/C (dose: 2.5 mg/kg/injection, schedule: Q01DX009 (ip), vehicle: saline): 93 % of control | T/C (dose: 15.0 micrograms/kg/injection, schedule: Q01DX009 (ip), vehicle: saline): 113 % of control | T/C (dose: 25.0 micrograms/kg/injection, schedule: Q01DX009 (ip), vehicle: saline): 102 % of control | T/C (dose: 30.0 micrograms/kg/injection, schedule: Q01DX009 (ip), vehicle: saline): 115 % of control | T/C (dose: 50.0 micrograms/kg/injection, schedule: Q01DX009 (ip), vehicle: saline): 111 % of control | T/C (dose: 100.0 micrograms/kg/injection, schedule: Q01DX009 (ip), vehicle: saline): 116 % of control | T/C (dose: 120.0 micrograms/kg/injection, schedule: Q01DX009 (ip), vehicle: saline): 107 % of control | T/C (dose: 250.0 micrograms/kg/injection, schedule: Q01DX009 (ip), vehicle: saline): 105 % of control

CCOC(=O)c1ccc(NCC(C)(C)[N+](=O)[O-])cc1
T/C [1]: 88 % of control | T/C [2]: 88 % of control

Nc1ccccc1SC1CC(=O)N(c2ccccc2)C1=O (configuration not stated)
T/C (dose: 100.0 mg/kg/injection, schedule: Q01DX001 (ip), vehicle: saline with Tween-80): 94 % of control | T/C (dose: 200.0 mg/kg/injection, schedule: Q01DX001 (ip), vehicle: saline with Tween-80): 94 % of control | T/C (dose: 400.0 mg/kg/injection, schedule: Q01DX001 (ip), vehicle: saline with Tween-80): 94 % of control

COC(=O)C1CC(=O)C2(C)CCc3c(ccc4cc(OC)ccc34)C12 (configuration not stated)
T/C (dose: 100.0 mg/kg/injection, schedule: Q01DX001 (sc), vehicle: steriod suspending solution): 109 % of control | T/C (dose: 200.0 mg/kg/injection, schedule: Q01DX001 (sc), vehicle: steriod suspending solution): 104 % of control

CCn1c(O)c(C=N)c(=O)n(CC)c1=O
T/C (dose: 12.0 mg/kg/injection, schedule: Q01DX001 (ip), vehicle: saline): 97 % of control | T/C (dose: 12.5 mg/kg/injection, schedule: Q04DX003 (ip), vehicle: Klucel (hydroxypropylcellulose) (HPC)): 100 % of control | T/C [3]: 111 % of control | T/C (dose: 25.0 mg/kg/injection, schedule: Q04DX003 (ip), vehicle: Klucel (hydroxypropylcellulose) (HPC)): 93 % of control | T/C (dose: 50.0 mg/kg/injection, schedule: Q01DX001 (ip), vehicle: saline): 94 % of control | T/C (dose: 50.0 mg/kg/injection, schedule: Q04DX003 (ip), vehicle: Klucel (hydroxypropylcellulose) (HPC)): 97 % of control

O=P1(NCCCl)OCCCN1CCCl (configuration not stated)
T/C (dose: 5.0 mg/kg/injection, schedule: Q01DX009 (ip), vehicle: saline): 108 % of control | T/C (dose: 6.25 mg/kg/injection, schedule: Q04DX003 (ip), vehicle: saline): 96 % of control | T/C (dose: 10.0 mg/kg/injection, schedule: Q01DX009 (ip), vehicle: saline): 110 % of control and 113 % of control | T/C (dose: 12.5 mg/kg/injection, schedule: Q04DX003 (ip), vehicle: saline): 96 % of control | T/C (dose: 18.7 mg/kg/injection, schedule: Q01DX001 (ip), vehicle: saline): 95 % of control | T/C (dose: 18.75 mg/kg/injection, schedule: Q01DX001 (ip), vehicle: saline): 97 % of control | T/C [3]: 120 % of control | T/C (dose: 37.5 mg/kg/injection, schedule: Q01DX001 (ip), vehicle: saline): 95 % of control and 113 % of control | T/C (dose: 37.5 mg/kg/injection, schedule: Q04DX003 (ip), vehicle: saline): 95 % of control | T/C (dose: 50.0 mg/kg/injection, schedule: Q01DX001 (sc), vehicle: steriod suspending solution): 103 % of control | T/C (dose: 54.0 mg/kg/injection, schedule: Q01DX001 (ip), vehicle: saline with Tween-80): 162 % of control | T/C (dose: 54.0 mg/kg/injection, schedule: Q07DX002 (ip), vehicle: water): 155 % of control | T/C (dose: 60.0 mg/kg/injection, schedule: Q01DX009 (ip), vehicle: saline): 115 % of control | T/C (dose: 75.0 mg/kg/injection, schedule: Q07DX003 (ip), vehicle: saline): 168 % of control and 184 % of control and 186 % of control | T/C (dose: 80.0 mg/kg/injection, schedule: Q01DX009 (ip), vehicle: saline): 90 % of control | T/C (dose: 100.0 mg/kg/injection, schedule: Q07DX003 (ip), vehicle: saline): 189 % of control | T/C (dose: 108.0 mg/kg/injection, schedule: Q01DX001 (ip), vehicle: saline with Tween-80): 346 % of control | T/C (dose: 108.0 mg/kg/injection, schedule: Q07DX002 (ip), vehicle: water): 355 % of control | T/C (dose: 125.0 mg/kg/injection, schedule: Q01DX001 (ip), vehicle: saline): 113 % of control and 153 % of control and 222 % of control | T/C (dose: 125.0 mg/kg/injection, schedule: Q01DX001 (sc), vehicle: steriod suspending solution): 153 % of control | T/C (dose: 125.0 mg/kg/injection, schedule: Q04DX003 (ip), vehicle: saline): 182 % of control and 236 % of control | T/C (dose: 125.0 mg/kg/injection, schedule: Q07DX003 (ip), vehicle: saline): 157 % of control | T/C (dose: 216.0 mg/kg/injection, schedule: Q01DX001 (ip), vehicle: saline with Tween-80): 375 % of control | T/C (dose: 216.0 mg/kg/injection, schedule: Q07DX002 (ip), vehicle: water): 333 % of control | T/C (dose: 250.0 mg/kg/injection, schedule: Q01DX001 (ip), vehicle: saline): 120 % of control and 222 % of control | T/C (dose: 250.0 mg/kg/injection, schedule: Q01DX001 (sc), vehicle: steriod suspending solution): 120 % of control | T/C (dose: 250.0 mg/kg/injection, schedule: Q04DX003 (ip), vehicle: saline): 221 % of control and 236 % of control | T/C (dose: 300.0 mg/kg/injection, schedule: Q04DX003 (ip), vehicle: saline): 105 % of control | T/C [2]: 86 % of control | T/C (dose: 400.0 mg/kg/injection, schedule: Q01DX001 (sc), vehicle: steriod suspending solution): 123 % of control | T/C (dose: 432.0 mg/kg/injection, schedule: Q01DX001 (ip), vehicle: saline with Tween-80): 375 % of control | T/C (dose: 600.0 mg/kg/injection, schedule: Q01DX001 (ip), vehicle: saline): 111 % of control

COC(=O)Cc1ccc([N+](=O)[O-])cc1[N+](=O)[O-]
T/C [1]: 94 % of control | T/C (dose: 200.0 mg/kg/injection, schedule: Q01DX001 (ip), vehicle: saline): 94 % of control | T/C [2]: 97 % of control
